Measurements as given in patent publication US8202910B2 (Sequella, Inc., priority 2006, dated 2012).
≈ marks a conversion by molar mass, not a printed value. Where “and” joins values, the source holds several entries; their conditions need not be identical. Identical values can stand only once. Like-named read-outs stand apart in the source and are kept apart here.

Experiments:
[1] = test system: M. tuberculosis H37Rv; assay: MIC by BACTEC 460; type: cell-based, Mycobacterium tuberculosis; conditions: for MIC: Mycobacterium tuberculosis, H37RV, read-out: MIC (BACTEC)
[2] = test system: RIF^R M. tuberculosis isolate 3185; assay: microbe, parasite or virus in culture; type: cell-based; conditions: for concentration to which the strain was susceptible: strain 3185
[3] = test system: RIF^R M. tuberculosis isolate 2482; assay: microbe, parasite or virus in culture; type: cell-based; conditions: for MIC (BACTEC): Strain 2482; for concentration to which the strain was susceptible: strain 2482
[4] = test system: M. tuberculosis H37Rv (Pasteur); assay: Rapid in vivo model of TB, body weight of infected mice; parameters: species or system C3H female mice; conditions: single drug alone (SQ109 10 mg/kg; RIF 2 mg/kg), by the 3 wk
[5] = test system: M. tuberculosis H37Rv; assay: Standard chronic mouse model of tuberculosis, CFU in lung; type: in vivo, C57BL/6 female mice; conditions: RIF (20 mg/kg) by itself, 4 week therapy
[6] = test system: H37Rv strain of Mycobacterium tuberculosis; assay: microbe, parasite or virus in culture; type: cell-based
[7] = test system: monkey kidney cells (Vero); assay: In vitro toxicity, Vero cells; type: cell-based; conditions: Primates
Method: Twenty six compounds (including 37, 59 and 109) were tested in an in vitro model of toxicity using monkey kidney cells (Vero) and human cervical cancer cells (HeLa) using methods well known to those skilled in the art. The data from this toxicity testing and the MIC data were used to calculate a selectivity index (SI), the ratio of IC50:MIC (Table 15). Selectivity Indexes were ranging from 1.76 to 16.67.

[8] = test system: M. tuberculosis H37Rv; assay: In vivo efficacy, mice infected i.v. with M. tuberculosis, CFU in spleen and lungs; parameters: species or system C57BL/6 mice; conditions: for activity in vivo, spleen and lung: 25 mg/kg, 5×10^6 CFU, 4 weeks
[9] = test system: wild type of M.tb; assay: MIC, secondary screening, wild type; type: cell-based, Mycobacterium tuberculosis; conditions: Mycobacterium tuberculosis, WT
[10] = test system: cells; assay: LD50 for selectivity index (Table 10); type: cell-based, Mycobacterium tuberculosis; conditions: for SI (Selectivity Index): LD50 : MIC
Description: Table 10 lists MIC and LD50 data for selected compounds. […] Table 11 lists MIC data for purified substituted ethylene diamines in comparison to ethambutol (EMB).

[11] = Mycobacterium tuberculosis, read-out: MIC (BACTEC)
[12] = Mycobacterium tuberculosis, H37RV, Table 15, read-out: MIC
[13] = EMB, RL241, Cmpd#59 as 2HCl salt, Cmpd#109 as 2CF3COOH salt, read-out: MIC
[14] = Mycobacterium tuberculosis, H37RV, Table 10, from uM and MW, read-out: MIC
[15] = Mycobacterium tuberculosis, H37RV, Table 10, read-out: MIC
[16] = Mycobacterium tuberculosis, H37RV, read-out: MIC
[17] = concentration at which 50% of the cells are killed

In the case of `CO[C@H]1/C=C/O[C@@]2(C)Oc3c(C)c(O)c4c(O)c(c(/C=N/N5CCN(C)CC5)c(O)c4c3C2=O)NC(=O)/C(C)=C\C=C\[C@H](C)[C@H](O)[C@@H](C)[C@@H](O)[C@@H](C)[C@H](OC(C)=O)[C@@H]1C` [RIF, Rifampicin], the “MIC (BACTEC)” value ([1]; H37Rv) is reported as 0.17 µg/mL (≈ 0.207 µM), the MIC [1] is reported as 0.2 µg/mL (≈ 0.243 µM) and the MIC [2, 11] is reported as 24 µg/mL (≈ 29.2 µM). The “MIC (BACTEC)” value ([2]; isolate 3185) was 24 µg/mL (≈ 29.2 µM), the MIC [3, 11] was greater than 100 µg/mL and the “MIC (BACTEC)” value ([3]; listed as Rifampicin) was greater than 100 µg/mL. The “MIC (BACTEC)” value ([3]; listed as rifampicin) was greater than 100 µg/mL, the average weight [4] was 19.7 g and the CFU in lung [5] was 5.8 log10.
For `COc1ccccc1CCNCCNC1C2CC3CC(C2)CC1C3` (stereo not drawn) [Compound 73, N-(2-Adamantyl)-N′-[2-(2-methoxyphenyl)ethyl]ethane-1,2-diamine], the MIC [6, 12] was 12.5 µM, the IC50 [7] was 81 µM and the “activity in the spleen compared with EMB” value ([8]; 1 mg/kg and 10 mg/kg, 5×10^5 CFU, chemotherapy from day 20) was “equal to that of EMB at 100 mg/kg”.
Molecule `CC1(C)C2CCC(CNCCNCC(c3ccccc3)c3ccccc3)[C@@H]1C2` (stereo partly drawn) [RL 241] has an MIC ([9]; value in brackets, read-out: MIC (or uM)) of 3.34 µM and an MIC [9, 13] of 1.5 µg/mL.
`CCC1CCCCN1CCNC/C=C(\C)CCC=C(C)C` (stereo not drawn) [Compound 111, N-[2-(N′-Geranyl)aminoethyl]-2-ethylpiperidine] was tested, and the “MIC” value [6] was 7.813 µM and 7.8 µM, the MIC [6, 14] was 3.22 µg/mL and the MIC [6, 15] was 7.81 µM. The MIC [6, 12] was 7.81 µM, the MIC [6, 16] was 7.81 µM and the “SI (Selectivity Index)” value [10] was 5.632. The “LD50” value [10, 17] was 44 µM, the “LD50” value ([10]; from uM and MW) was 18.128 µg/mL and the IC50 [7] was 45 µM. For the same molecule, the “anti-tuberculosis activity compared with EMB” value ([8]; 10 mg/kg, B6 mice, 5×10^5 CFU, chemotherapy from day 20) was “comparable to that of EMB at 100 mg/kg” and the “activity in vivo, spleen and lung” value [8] was “active in vivo in both spleen and lung”.
In the case of `NNC(=O)c1ccncc1` [INH, Isoniazid], the MIC [6, 16] is reported as 0.91 µM, the MIC [1] is reported as 0.025 µg/mL (≈ 0.182 µM) and the “activity in spleen and lung, rank among drugs” value ([8]; INH 25 mg/kg) is reported as “the most active drug in both spleen and lung”. The “decrease of load of bacteria in organs” value ([8]; during 4-6 weeks of chemotherapy) was 2-3 logs, the “concentration to which the strain was susceptible” value (from here on “concentration”) [2] was 0.1 mg/L and the “concentration” value [3] was 0.1 mg/L.
`C1CCCC(NCCNC2C3CC4CC(C3)CC2C4)CCC1` (stereo not drawn) [Compound 58, N-(Cyclooctyl)-N′-(2-adamantyl)ethane-1,2-diamine] was tested, and the MIC [6, 12] was 12.5 µM, the IC50 [7] was 82 µM and the “activity in vivo, spleen and lung” value [8] was “active in vivo in both spleen and lung”.
In the case of `C[C@@H]1C2C[C@@H](C[C@H]1NCCNCC(c1ccccc1)c1ccccc1)C2(C)C` [Compound 40, N-(2,2-Diphenylethyl)-N′-(1R,2R,3R,5S)-(−)-isopinocampheylethane-1,2-diamine], the MIC [6, 12] is reported as 15.6 µM and the IC50 [7] is reported as 25 µM.
`C[C@@H]1C2C[C@@H](C[C@H]1NCCNC[C@@H]1CCC3C[C@@H]1C3(C)C)C2(C)C` [MP 117] was tested, and the MIC [9, 13] was 6.25 µg/mL.
`CC1(C)C2CCC(CNCCNC3CCCCCCC3)[C@@H]1C2` (stereo partly drawn) [Compound 57, N-(−)-cis-Myrtanyl-N′-(cyclooctyl)ethane-1,2-diamine] was tested, and the MIC [6, 14] was 6.66 µg/mL, the MIC [6, 15] was 15.6 µM and the MIC [6, 12] was 11.7 µM. The “SI (Selectivity Index)” value [10] was 1.152, the “LD50” value [10, 17] was 18 µM and the “LD50” value ([10]; from uM and MW) was 7.668 µg/mL. The IC50 [7] was 22 µM.
In the case of `[H]/N=C(/N)N[C@H]1[C@H](O)[C@@H](O)[C@H](O[C@@H]2O[C@@H](C)[C@](O)(C=O)[C@H]2O[C@@H]2O[C@@H](CO)[C@H](O)[C@@H](O)[C@@H]2NC)[C@@H](N/C(N)=N\[H])[C@@H]1O` [SM, Streptomycin], the MIC [1] is reported as 0.25 µg/mL (≈ 0.43 µM), the “concentration” value [2] is reported as 2 mg/L and the “concentration” value [3] is reported as 2 mg/L.
For `CC1(C)CC2CC(C)(CN2CCNC[C@@H]2CCC3C[C@@H]2C3(C)C)C1` [MP 116], the MIC [9, 13] was 6.25 µg/mL.
